Test results: BindingDB's records for doi:10.1016/j.bmcl.2021.128215 (Shenyang Pharmaceutical University, 2021)

Molecular target: Apoptosis regulator Bcl-2 (Homo sapiens) (UniProt P10415)
Assay: Binding affinity to Bcl-2 (unknown origin) by fluorescence polarization competition assay

Sequence of Apoptosis regulator Bcl-2 (Homo sapiens) (P10415 whole entry, looked up): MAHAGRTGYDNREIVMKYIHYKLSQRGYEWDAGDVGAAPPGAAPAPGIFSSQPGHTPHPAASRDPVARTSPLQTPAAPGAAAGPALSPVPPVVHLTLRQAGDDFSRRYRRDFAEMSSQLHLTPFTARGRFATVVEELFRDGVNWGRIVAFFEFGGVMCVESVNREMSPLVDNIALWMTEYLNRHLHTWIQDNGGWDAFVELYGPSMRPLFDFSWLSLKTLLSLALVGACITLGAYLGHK

Row | SMILES | Ki
1 | O=C(O)c1ccccc1-c1cccc2c1c(-c1cccc(C(F)(F)F)c1)cn2Cc1cccc2ccccc12 | 1080 nM
2 | Cc1cccc(-c2cn(CCOc3cccc4ccccc34)c3cccc(-c4ccccc4C(=O)O)c23)c1C | 1300 nM
3 | Cc1cccc(-c2cn(Cc3cccc4ccccc34)c3cccc(-c4ccccc4C(=O)O)c23)c1 | 1800 nM
4 | O=C(O)c1ccccc1-c1cccc2c1c(-c1cccc(C(F)(F)F)c1)cn2CCCOc1cccc2ccccc12 | 2550 nM
5 | Cc1ccc(-c2cn(CCOc3cccc4ccccc34)c3cccc(-c4ccccc4C(=O)O)c23)cc1 | 870 nM
6 | COc1ccccc1-c1cn(Cc2cccc3ccccc23)c2cccc(-c3ccccc3C(=O)O)c12 | 1280 nM
7 | O=C(O)c1ccccc1-c1cccc2c1ccn2CCCOc1cccc2ccccc12 | 4530 nM
8 | COc1ccccc1-c1cn(CCOc2cccc3ccccc23)c2cccc(-c3ccccc3C(=O)O)c12 | 820 nM
9 | CC(C)c1ccccc1-c1cn(CCOc2cccc3ccccc23)c2cccc(-c3ccccc3C(=O)O)c12 | 1740 nM
10 | O=C(O)c1ccccc1-c1cccc2c1c(-c1cccc(Cl)c1)cn2CCOc1cccc2ccccc12 | 3210 nM

The remaining compounds from weak to strong by Ki, led by results:

Row | Ki | SMILES
11 | 820 nM | O=C(O)c1ccccc1-c1cccc2c1c(-c1ccccc1)cn2Cc1cccc2ccccc12
12 | 800 nM | Cc1ccc(-c2cn(Cc3cccc4ccccc34)c3cccc(-c4ccccc4C(=O)O)c23)cc1
13 | 660 nM | Cc1ccccc1-c1cn(Cc2cccc3ccccc23)c2cccc(-c3ccccc3C(=O)O)c12
14 | 560 nM | Cc1cccc(-c2cn(CCCOc3cccc4ccccc34)c3cccc(-c4ccccc4C(=O)O)c23)c1
15 | 530 nM | COc1cccc(-c2cn(Cc3cccc4ccccc34)c3cccc(-c4ccccc4C(=O)O)c23)c1
16 | 490 nM | O=C(O)c1ccc(Cl)cc1-c1cccc2c1ccn2CCCOc1cccc2ccccc12
17 | 360 nM | Cc1cccc(-c2cn(CCOc3cccc4ccccc34)c3cccc(-c4ccccc4C(=O)O)c23)c1
18 | 300 nM | CCc1ccccc1-c1cn(CCOc2cccc3ccccc23)c2cccc(-c3ccccc3C(=O)O)c12
19 | 250 nM | Cc1ccccc1-c1cn(CCOc2cccc3ccccc23)c2cccc(-c3ccccc3C(=O)O)c12
20 | 250 nM | O=C(O)c1ccccc1-c1cccc2c1c(-c1cccc(C(F)(F)F)c1)cn2CCOc1cccc2ccccc12
21 | 100 nM | O=C(O)c1ccccc1-c1cccc2c1c(-c1cccc(Cl)c1)cn2Cc1cccc2ccccc12
